Laboratory results taken from ChEMBL document CHEMBL3137667, “[Drug-induced liver injury; fourteenth updated edition of the bibliographic database of liver injuries and related drugs]” (Gastroenterol Clin Biol, 2004).

Key:
[1] = Highest frequency of moderate liver toxicity observed during clinical trials, expressed as a percentage. [column '% BIOL' in source]; conditions: human
[2] = Highest frequency of acute liver toxicity observed during clinical trials, expressed as a percentage. [column '% AIGUE' in source]; conditions: human
[3] = Comments (NB not yet translated). [column 'COMMENTAIRES' in source]; conditions: human
[4] = Times to onset, minimal and maximal, observed in the indexed observations. [column 'DELAI' in source]; conditions: human
[5] = human, serum
[6] = human, serum; remark: listed apart in the source
[7] = human
[8] = human; remark: listed apart in the source
[9] = human; remark: listed apart in the source
[10] = human, serum, 4383 h
[11] = human; remark: listed apart in the source
[12] = human; remark: listed apart in the source
[13] = human; remark: listed apart in the source
[14] = human; remark: listed apart in the source
[15] = human; remark: listed apart in the source
[16] = human; remark: listed apart in the source
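Wherever Hepatotoxicity (association with vascular disease) is given: count of indexed literature references reporting vascular liver injury in humans, e.g. peliosis hepatitis, hepatic veno-occlusive disease or Budd-Chiari syndrome.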
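Wherever Hepatotoxicity (benign tumour) is given: value is a count of indexed literature references citing a benign tumour confirmed by histopathology.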
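Wherever Hepatotoxicity (choleostasis) is given: human cholestatic liver injury, shown by histopathology or by peak ALT or AST elevation over alkaline phosphatase ratio below 2, value counts indexed literature reports.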
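Wherever Hepatotoxicity (chronic liver disease) is given: chronic liver injury confirmed by histopathology or persistently raised serum aminotransferase activity beyond 6 months, value given as the count of indexed literature references.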
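Wherever Hepatotoxicity (cirrhosis) is given: value is a count of indexed literature references reporting cirrhosis confirmed by histopathology.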
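Wherever Hepatotoxicity (cytolytic) is given: human cytolytic liver injury, shown by histopathology or by a ratio above 5 of peak ALT or AST elevation to alkaline phosphatase elevation, value counts indexed references.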
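Wherever Hepatotoxicity (granulomatous hepatitis) is given: value is a count of indexed literature references reporting granulomatous liver disease confirmed by histopathology.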
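Wherever Hepatotoxicity (malignant tumour) is given: malignant tumour confirmed by histopathology, value gives the count of indexed literature references reporting it.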
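Wherever Hepatotoxicity (severe hepatitis) is given: human clinical data: severe hepatitis, meaning potentially life-threatening liver failure or clinically observed cases, the value counts how many indexed literature references report it.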
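Wherever Hepatotoxicity (steatosis) is given: steatosis confirmed by histopathology, value is the count of indexed references.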

Structure (SMILES)	Hepatotoxicity (moderate) [1] [%]	Hepatotoxicity (acute) [2] [%]	Hepatotoxicity (comment) [3]	Hepatotoxicity (time to onset) [4]	Hepatotoxicity (moderate) [5]	Hepatotoxicity (acute) [6]	Hepatotoxicity (cytolytic) [7]	Hepatotoxicity (choleostasis) [8]	Hepatotoxicity (severe hepatitis) [9]	Hepatotoxicity (chronic liver disease) [10]	Hepatotoxicity (cirrhosis) [11]	Hepatotoxicity (granulomatous hepatitis) [12]	Hepatotoxicity (association with vascular disease) [13]	Hepatotoxicity (steatosis) [14]	Hepatotoxicity (malignant tumour) [15]	Hepatotoxicity (benign tumour) [16]
CN1CCN(CCCN2c3ccccc3Sc3ccc(C(F)(F)F)cc32)CC1 [TRIFLUOPERAZINE]	0	0	#CBP	2 weeks - 8 years	2	5	0	4	0	0	1	0	0	0	0	0
CCc1cccc2c3c([nH]c12)C(CC)(CC(=O)O)OCC3 (stereo not given) [ETODOLAC]	4	0	AC_ANTI-N/-ML	4 days - 16 weeks	4	3	2	2	1	0	0	0	0	1	0	0
Cc1c(O)cccc1C(=O)N[C@@H](CSc1ccccc1)[C@H](O)CN1C[C@H]2CCCC[C@H]2C[C@H]1C(=O)NC(C)(C)C	27	7.4	REACTIVATION_HVB	47 days - 17 months	4	3	3	0	0	0	0	0	0	0	0	0
O=C(CCNNC(=O)c1ccncc1)NCc1ccccc1 [NIALAMIDE]	0	0	RC/PHENIPRAZINE	3 weeks	0	2	2	1	0	0	0	0	0	1	0	0
CCOc1nc2cccc(C(=O)O)c2n1Cc1ccc(-c2ccccc2-c2nnn[nH]2)cc1	2.4	0	DUCTOPENIE	2 weeks - 5.5 months	3	2	3	0	1	0	0	0	0	1	0	0
CC(=O)c1ccc2c(c1)N(CCCN(C)C)c1ccccc1S2 [ACEPROMAZINE]	0	0	CHOLESTASE_PROLONGEE	3 months	0	1	0	1	0	0	0	0	0	0	0	0
O=C(O)c1cc(/N=N/c2ccc(O)c(C(=O)O)c2)ccc1O [OLSALAZINE]	15	0	RC/SULFASALAZINE	3 weeks	1	1	1	1	0	0	0	0	0	0	0	0
CCC1=C(C)CN(C(=O)NCCc2ccc(S(=O)(=O)NC(=O)N[C@H]3CC[C@H](C)CC3)cc2)C1=O [GLIMEPIRIDE]	0	0	CHOLANGIOLITE	2.5 months - 3.3 months	0	2	1	1	0	0	0	0	0	0	0	0
CC(C)(Oc1ccc(C2CC2(Cl)Cl)cc1)C(=O)O (stereo not given) [CIPROFIBRATE]	7.7	0	AC_ANTI-N	24 days - 15 months	7	3	2	1	1	1	1	0	0	0	0	0
Nc1ncnc2c1ncn2[C@@H]1O[C@H](CO)[C@@H](O)[C@@H]1O [VIDARABINE]	17	0	AGGRAVATION_HEPATITE_VIRALE	1 week	5	0	0	0	1	0	0	0	0	0	0	0
